This assay concerns the target T1, S. aureus TrmD (Staphylococcus aureus, UniProt Q2FZ43).
T1 construct: made in house; host or cells: E. coli BL21
T1 sequence (Q2FZ43 1-245): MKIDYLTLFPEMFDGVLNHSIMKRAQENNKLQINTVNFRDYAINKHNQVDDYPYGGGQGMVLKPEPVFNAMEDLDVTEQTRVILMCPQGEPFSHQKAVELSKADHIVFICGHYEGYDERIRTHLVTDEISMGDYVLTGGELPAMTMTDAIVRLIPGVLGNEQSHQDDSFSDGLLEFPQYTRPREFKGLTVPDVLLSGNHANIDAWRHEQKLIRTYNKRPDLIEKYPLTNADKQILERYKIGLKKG
As to the kind of experiment: nanoSAR direct-to-biology FP displacement screening of crude triazoles. Format: binding. As to conditions: crude triazole at 1 μM, assuming full conversion; 500 nM TrmD, 10 nM tracer 4; read-out: % displaced tracer. The method in brief:
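Crude CuAAC triazoles from alkyne 7 and 320 diverse azides were screened by FP displacement of 10 nM tracer 4 from 500 nM S. aureus TrmD. Buffer was 40 mM Tris HCl, 100 mM NaCl, 10 mM MgCl2, 5% glycerol, pH 7.5.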
Turning to `Cc1nc(Cn2cc(-c3c[nH]c4nc[nH]c(=O)c34)nn2)cs1` [Compound 01F09, S1C(=NC(=C1)CN2N=NC(C=3C=4C(=O)NC=NC4NC3)=C2)C], the inhibition at 1 µM amounted to 53%.

For `O=c1[nH]cnc2[nH]cc(-c3cn(-c4cccc5c4CCCC5)nn3)c12` [Compound 02A11, O=C1NC=NC=2NC=C(C=3N=NN(c4c5c(ccc4)CCCC5)C3)C12], the inhibition at 1 µM was 14%.

`O=c1[nH]cnc2[nH]cc(-c3cn(C[C@H](O)c4ccc(Cl)cc4)nn3)c12` [Compound 02C04, Clc1ccc(cc1)[C@@H](O)CN2N=NC(C=3C=4C(=O)NC=NC4NC3)=C2]: the inhibition at 1 µM was found to be 85%.

Consider `CN(C)c1ccc(-n2cc(-c3c[nH]c4nc[nH]c(=O)c34)nn2)cc1` [Compound 01E01, O=C1NC=NC=2NC=C(C=3N=NN(c4ccc(N(C)C)cc4)C3)C12], for which the inhibition at 1 µM was determined as 33%.

For the compound `O=c1[nH]cnc2[nH]cc(-c3cn([C@H]4CCCNCC4)nn3)c12` [Compound 03A12, O=C1NC=NC=2NC=C(C=3N=NN(C3)[C@@H]4CC[NH2+]CCC4)C12], the inhibition at 1 µM is 18%.

With `COC(=O)c1csc(Cn2cc(-c3c[nH]c4nc[nH]c(=O)c34)nn2)n1` [Compound 03G08, S1C(=NC(C(=O)OC)=C1)CN2N=NC(C=3C=4C(=O)NC=NC4NC3)=C2], the inhibition at 1 µM came out at 10%.

As to `N#Cc1ccc(Cn2cc(-c3c[nH]c4nc[nH]c(=O)c34)nn2)c(F)c1` [Compound 01A01, Fc1c(ccc(C#N)c1)CN2N=NC(C=3C=4C(=O)NC=NC4NC3)=C2], the inhibition at 1 µM amounted to 12%.

As to `O=c1[nH]cnc2[nH]cc(-c3cn(CCCN4CCCC4)nn3)c12` [Compound 03H05, O=C1NC=NC=2NC=C(C=3N=NN(C3)CCC[NH+]4CCCC4)C12], the inhibition at 1 µM is 40%.

With `NC(=O)C1(n2cc(-c3c[nH]c4nc[nH]c(=O)c34)nn2)CC1` [Compound 04H02, O=C1NC=NC=2NC=C(C=3N=NN(C3)C4(C(=O)N)CC4)C12], the inhibition at 1 µM turned out to be 33%.

On to `Cc1ccc(-n2cc(-c3c[nH]c4nc[nH]c(=O)c34)nn2)nc1` [Compound 03F10, O=C1NC=NC=2NC=C(C=3N=NN(c4ncc(cc4)C)C3)C12], for which the inhibition at 1 µM was found to be 18%.

For `O=c1[nH]cnc2[nH]cc(-c3cn(Cc4noc5c4CCC5)nn3)c12` [Compound 01C04, O=C1NC=NC=2NC=C(C=3N=NN(C3)CC4=NOC5=C4CCC5)C12], the inhibition at 1 µM turned out to be 41%.

As to `O=c1[nH]cnc2[nH]cc(-c3cn(CCN4CCCC4)nn3)c12` [Compound 01A04, O=C1NC=NC=2NC=C(C=3N=NN(C3)CC[NH+]4CCCC4)C12], the inhibition at 1 µM worked out at 22%.

Turning to `CCOc1ccc(-n2cc(-c3c[nH]c4nc[nH]c(=O)c34)nn2)cc1` [Compound 01D07, O=C1NC=NC=2NC=C(C=3N=NN(c4ccc(OCC)cc4)C3)C12], the inhibition at 1 µM was 19%.

For the compound `C[C@H](c1ccc(F)cc1Cl)n1cc(-c2c[nH]c3nc[nH]c(=O)c23)nn1` [Compound 01G11, Clc1c(ccc(F)c1)[C@H](N2N=NC(C=3C=4C(=O)NC=NC4NC3)=C2)C], the inhibition at 1 µM is 56%.

As for `COC(=O)[C@@H]1CCC[C@H](n2cc(-c3c[nH]c4nc[nH]c(=O)c34)nn2)C1` [Compound 01D01, O=C(OC)[C@H]1C[C@@H](N2N=NC(C=3C=4C(=O)NC=NC4NC3)=C2)CCC1], the inhibition at 1 µM is 33%.

With `COC(=O)CCCn1cc(-c2c[nH]c3nc[nH]c(=O)c23)nn1` [Compound 03B10, O=C(OC)CCCN1N=NC(C=2C=3C(=O)NC=NC3NC2)=C1], the inhibition at 1 µM came to 58%.

For the compound `O=c1[nH]cnc2[nH]cc(-c3cn([C@@H]4C[C@H]5CC[C@@H](C4)N5)nn3)c12` [Compound 01G10, O=C1NC=NC=2NC=C(C=3N=NN(C3)[C@@H]4C[C@@H]5[NH2+][C@H](C4)CC5)C12], the inhibition at 1 µM was found to be 44%.

As to `O=c1[nH]cnc2[nH]cc(-c3cn(Cc4cc(=O)n5nccc5[nH]4)nn3)c12` [Compound 02A09, O=C1N2N=CC=C2NC(=C1)CN3N=NC(C=4C=5C(=O)NC=NC5NC4)=C3], the inhibition at 1 µM came out at 12%.

For the compound `O=c1[nH]cnc2[nH]cc(-c3cn(C[C@@H]4CNCCO4)nn3)c12` [Compound 02D04, O=C1NC=NC=2NC=C(C=3N=NN(C3)C[C@H]4OCC[NH2+]C4)C12], the inhibition at 1 µM came out at 24%.

On to `CCN(CC)C(=O)Cn1cc(-c2c[nH]c3nc[nH]c(=O)c23)nn1` [Compound 01C10, O=C1NC=NC=2NC=C(C=3N=NN(C3)CC(=O)N(CC)CC)C12], for which the inhibition at 1 µM is 25%.

Take `COC(=O)Cn1cc(-c2c[nH]c3nc[nH]c(=O)c23)nn1` [Compound 01E05, O=C(OC)CN1N=NC(C=2C=3C(=O)NC=NC3NC2)=C1]: the inhibition at 1 µM was found to be 11%.

With `Cc1c[nH]nc1Cn1cc(-c2c[nH]c3nc[nH]c(=O)c23)nn1` [Compound 04G01, O=C1NC=NC=2NC=C(C=3N=NN(C3)CC4=NNC=C4C)C12], the inhibition at 1 µM is 87%.

In the case of `O=c1[nH]cnc2[nH]cc(-c3cn(Cc4cc(-c5ccco5)on4)nn3)c12` [Compound 03B03, O=C1NC=NC=2NC=C(C=3N=NN(C3)CC4=NOC(C=5OC=CC5)=C4)C12], the inhibition at 1 µM worked out at 49%.

As to `NCCCn1cc(-c2c[nH]c3nc[nH]c(=O)c23)nn1` [Compound 03E10, O=C1NC=NC=2NC=C(C=3N=NN(C3)CCC[NH3+])C12], the inhibition at 1 µM is 68%.

Consider `C[C@@H]1C[C@H](n2cc(-c3c[nH]c4nc[nH]c(=O)c34)nn2)c2ccsc2S1(=O)=O` [Compound 03D02, S1(=O)(=O)C=2SC=CC2[C@@H](N3N=NC(C=4C=5C(=O)NC=NC5NC4)=C3)C[C@H]1C], for which the inhibition at 1 µM was 27%.

With `O=c1[nH]cnc2[nH]cc(-c3cn(CC[C@@H]4CCCC4(F)F)nn3)c12` [Compound 02D11, F[C@@]1(F)[C@H](CCN2N=NC(C=3C=4C(=O)NC=NC4NC3)=C2)CCC1], the inhibition at 1 µM amounted to 75%.

`NS(=O)(=O)c1ccccc1-n1cc(-c2c[nH]c3nc[nH]c(=O)c23)nn1` [Compound 01G01, S(=O)(=O)(N)c1c(N2N=NC(C=3C=4C(=O)NC=NC4NC3)=C2)cccc1]: the inhibition at 1 µM amounted to 42%.

Regarding `COC(=O)C1(n2cc(-c3c[nH]c4nc[nH]c(=O)c34)nn2)CC1` [Compound 03H06, O=C(OC)C1(N2N=NC(C=3C=4C(=O)NC=NC4NC3)=C2)CC1], the inhibition at 1 µM amounted to 24%.

Turning to `Cn1ccc(-n2cc(-c3c[nH]c4nc[nH]c(=O)c34)nn2)n1` [Compound 03G05, O=C1NC=NC=2NC=C(C=3N=NN(C4=NN(C=C4)C)C3)C12], the inhibition at 1 µM stood at 25%.

For the compound `O=c1[nH]cnc2[nH]cc(-c3cn(CCn4ccccc4=O)nn3)c12` [Compound 01C11, O=C1N(C=CC=C1)CCN2N=NC(C=3C=4C(=O)NC=NC4NC3)=C2], the inhibition at 1 µM is 52%.

In the case of `O=c1[nH]cnc2[nH]cc(-c3cn([C@H]4COCC[C@@H]4O)nn3)c12` [Compound 02C08, O=C1NC=NC=2NC=C(C=3N=NN(C3)[C@@H]4[C@@H](O)CCOC4)C12], the inhibition at 1 µM was determined as 49%.

As to `O=c1[nH]cnc2[nH]cc(-c3cn(-c4ccc5[nH]cnc5c4)nn3)c12` [Compound 03G06, O=C1NC=NC=2NC=C(C=3N=NN(c4cc5N=CNc5cc4)C3)C12], the inhibition at 1 µM came to 27%.

For the compound `O=c1[nH]cnc2[nH]cc(-c3cn(CCOCC4CCCC4)nn3)c12` [Compound 03B11, O=C1NC=NC=2NC=C(C=3N=NN(C3)CCOCC4CCCC4)C12], the inhibition at 1 µM was 44%.

Consider `Cc1cccc(CCn2cc(-c3c[nH]c4nc[nH]c(=O)c34)nn2)n1` [Compound 03H03, O=C1NC=NC=2NC=C(C=3N=NN(C3)CCc4nc(ccc4)C)C12], for which the inhibition at 1 µM was 26%.

Turning to `O=c1[nH]cnc2[nH]cc(-c3cn([C@H]4CC5(CCC5)Oc5ccc(F)cc54)nn3)c12` [Compound 03B06, Fc1cc2c(OC3(C[C@@H]2N4N=NC(C=5C=6C(=O)NC=NC6NC5)=C4)CCC3)cc1], the inhibition at 1 µM was 70%.

Consider `O=c1[nH]cnc2[nH]cc(-c3cn(-c4ccnc(CO)c4)nn3)c12` [Compound 02D08, O=C1NC=NC=2NC=C(C=3N=NN(c4cc(ncc4)CO)C3)C12], for which the inhibition at 1 µM came out at 25%.

`O=c1[nH]cnc2[nH]cc(-c3cn([C@@H]4CCCc5cccnc54)nn3)c12` [Compound 02G11, O=C1NC=NC=2NC=C(C=3N=NN(C3)[C@H]4c5ncccc5CCC4)C12]: the inhibition at 1 µM is 18%.

For the compound `O=c1[nH]cnc2[nH]cc(-c3cn(Cc4cccs4)nn3)c12` [Compound 02B07, S1C(=CC=C1)CN2N=NC(C=3C=4C(=O)NC=NC4NC3)=C2], the inhibition at 1 µM is 85%.

Take `O=c1[nH]cnc2[nH]cc(-c3cn(CCCN4CCOCC4)nn3)c12` [Compound 03E09, O=C1NC=NC=2NC=C(C=3N=NN(C3)CCC[NH+]4CCOCC4)C12]: the inhibition at 1 µM came to 66%.

Consider `O=c1[nH]cnc2[nH]cc(-c3cn(CCO)nn3)c12` [Compound 04B04, O=C1NC=NC=2NC=C(C=3N=NN(C3)CCO)C12], for which the inhibition at 1 µM amounted to 63%.

For the compound `O=c1[nH]cnc2[nH]cc(-c3cn(C[C@H]4COc5ccccc5O4)nn3)c12` [Compound 02A07, O=C1NC=NC=2NC=C(C=3N=NN(C3)C[C@@H]4Oc5c(OC4)cccc5)C12], the inhibition at 1 µM worked out at 81%.

With `CC(C)(CN)Cn1cc(-c2c[nH]c3nc[nH]c(=O)c23)nn1` [Compound 02E01, O=C1NC=NC=2NC=C(C=3N=NN(C3)CC(C[NH3+])(C)C)C12], the inhibition at 1 µM was 54%.

`C[C@H]1CCCC[C@]1(C)n1cc(-c2c[nH]c3nc[nH]c(=O)c23)nn1` [Compound 04D02, O=C1NC=NC=2NC=C(C=3N=NN(C3)[C@@]4([C@H](CCCC4)C)C)C12]: the inhibition at 1 µM was 27%.

With `CCOC(=O)C12CC(Cn3cc(-c4c[nH]c5nc[nH]c(=O)c45)nn3)(C1)OC21CCOCC1` [Compound 03D04, O=C(OCC)C12C3(OC(CN4N=NC(C=5C=6C(=O)NC=NC6NC5)=C4)(C1)C2)CCOCC3], the inhibition at 1 µM is 51%.
